Source: patent US10722501B2 (BAYER AKTIENGESELLSCHAFT, priority 2016, dated 2020)

Each molecule was assayed against T1, recombinant full-length human prolyl endopeptidase (PREP) (Homo sapiens, UniProt P48147) (assay: Biochemical human prolyl endopeptidase (PREP) assay with fluorescently labelled substrate). Details: substrate Z-Gly-Pro-AMC 50 μM, 32° C., 60 min; some as mean values from multiple independent determinations.
T1 construct: To recombinant full-length human prolyl endopeptidase (PREP, R&D-Systems, 4308-SE); purchased R&D-Systems 4308-SE
T1 sequence (P48147 1-710): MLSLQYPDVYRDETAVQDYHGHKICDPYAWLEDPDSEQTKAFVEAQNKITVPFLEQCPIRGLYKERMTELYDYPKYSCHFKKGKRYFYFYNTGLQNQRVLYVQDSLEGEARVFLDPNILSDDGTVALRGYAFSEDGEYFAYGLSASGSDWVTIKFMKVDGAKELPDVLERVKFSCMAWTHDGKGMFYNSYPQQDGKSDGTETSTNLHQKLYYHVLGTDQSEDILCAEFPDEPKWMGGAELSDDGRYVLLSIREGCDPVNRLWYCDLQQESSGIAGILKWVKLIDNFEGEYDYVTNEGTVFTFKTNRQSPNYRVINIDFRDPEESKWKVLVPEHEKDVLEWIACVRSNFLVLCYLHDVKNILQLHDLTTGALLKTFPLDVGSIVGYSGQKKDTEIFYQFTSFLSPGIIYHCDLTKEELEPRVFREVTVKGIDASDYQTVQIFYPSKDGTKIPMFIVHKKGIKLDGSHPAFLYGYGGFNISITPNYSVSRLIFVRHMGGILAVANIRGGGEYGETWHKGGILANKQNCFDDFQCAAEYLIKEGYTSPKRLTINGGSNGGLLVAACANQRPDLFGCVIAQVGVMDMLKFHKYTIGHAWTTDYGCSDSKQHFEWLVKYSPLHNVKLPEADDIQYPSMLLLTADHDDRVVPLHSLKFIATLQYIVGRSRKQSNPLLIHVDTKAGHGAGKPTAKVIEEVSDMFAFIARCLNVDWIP
Outline: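 Initial rates of fluorescence increase from 50 μM Z-Gly-Pro-AMC cleavage (ex 360/em 465 nm, 60 min, 32° C) give percent PREP activity versus no-compound control, and IC50 is interpolated. Enzyme used at 0.4 nM (final, example) in Tris pH 7.5 with EDTA, GSH, BSA and Brij-35; compounds span 1 nM to 30 μM.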

IC50 [nM] | SMILES
0.795 | O=C([C@@H]1CCCc2nn(Cc3ccc(F)c(F)c3)c(=O)n21)N1CC(F)C1 [Example 469, (5S)-2-(3,4-Difluorobenzyl)-5-[(3-fluoroazetidin-1-yl)carbonyl]-5,6,7,8-tetrahydro[1,2,4]triazolo[4,3-a]pyridin-3(2H)-one]
1 | O=C([C@@H]1CCCc2nn(Cc3cccc(C(F)(F)F)n3)c(=O)n21)N1CC[C@H](F)C1 [Example 370, (5S)-5-{[(3S)-3-Fluoropyrrolidin-1-yl]carbonyl}-2-{[6-(trifluoromethyl)pyridin-2-yl]methyl}-5,6,7,8-tetrahydro[1,2,4]triazolo[4,3-a]pyridin-3(2H)-one]
13.1 | Cc1ccc(Cn2nc3n(c2=O)[C@H](C(=O)N2CC[C@H](C(F)F)C2)CCC3)cc1 [Example 143, (5S)-5-{[(3S)-3-(Difluoromethyl)pyrrolidin-1-yl]carbonyl}-2-(4-methylbenzyl)-5,6,7,8-tetrahydro[1,2,4]triazolo[4,3-a]pyridin-3(2H)-one]
0.41 | O=C([C@@H]1CCCc2nn(Cc3cc(C(F)(F)F)c(Cl)cn3)c(=O)n21)N1CC[C@H](F)C1 [Example 376, (5S)-2-{[5-Chloro-4-(trifluoromethyl)pyridin-2-yl]methyl}-5-{[(3S)-3-fluoropyrrolidin-1-yl]carbonyl}-5,6,7,8-tetrahydro[1,2,4]triazolo[4,3-a]pyridin-3(2H)-one]
0.99 | Cc1cccc(Cn2nc3n(c2=O)C(C(=O)N2CCCC2)CCC3)c1 (racemic) [Example 8, (5RS)-2-(3-Methylbenzyl)-5-(pyrrolidin-1-ylcarbonyl)-5,6,7,8-tetrahydro[1,2,4]triazolo[4,3-a]pyridin-3(2H)-one]
0.94 | O=C([C@@H]1CCCc2nn(Cc3cccc(Cl)n3)c(=O)n21)N1CC[C@H](F)C1 [Example 386, (5S)-2-[(6-Chloropyridin-2-yl)methyl]-5-{[(3S)-3-fluoropyrrolidin-1-yl]carbonyl}-5,6,7,8-tetrahydro[1,2,4]triazolo[4,3-a]pyridin-3(2H)-one]
0.27 | O=C(C1CCCc2nn(Cc3ccc4c(c3)CCCC4)c(=O)n21)N1CCCC1 (racemic) [Example 88, (5RS)-5-(Pyrrolidin-1-ylcarbonyl)-2-(5,6,7,8-tetrahydronaphthalen-2-ylmethyl)-5,6,7,8-tetrahydro[1,2,4]triazolo[4,3-a]pyridin-3(2H)-one]
28.5 | COc1ccc(CCn2nc3n(c2=O)[C@H](C(=O)N2CC(F)(F)C2)CCC3)cc1 [Example 523, (5S)-5-[(3,3-Difluoroazetidin-1-yl)carbonyl]-2-[2-(4-methoxyphenyl)ethyl]-5,6,7,8-tetrahydro[1,2,4]triazolo[4,3-a]pyridin-3(2H)-one]
4.9 | CC1CCC(C(=O)N2CCC(F)(F)C2)n2c1nn(Cc1ccc(C(F)(F)F)nc1)c2=O (racemic) [Example 330, (5RS,8RS)-5-[(3,3-Difluoropyrrolidin-1-yl)carbonyl]-8-methyl-2-{[6-(trifluoromethyl)pyridin-3-yl]methyl}-5,6,7,8-tetrahydro[1,2,4]triazolo[4,3-a]pyridin-3(2H)-one]
16 | O=C(C1C(C(F)(F)F)CCc2nn(Cc3ncc(Cl)cc3Cl)c(=O)n21)N1C[C@@H](F)[C@@H](F)C1 (single isomer, unassigned) [Example 288]
12.7 | O=C([C@@H]1CCCc2nn(Cc3cccc(C(F)(F)F)c3)c(=O)n21)N1CC[C@H](O)C1 [Example 99, (5S)-5-{[(3S)-3-Hydroxypyrrolidin-1-yl]carbonyl}-2-[3-(trifluoromethyl)benzyl]-5,6,7,8-tetrahydro[1,2,4]triazolo[4,3-a]pyridin-3(2H)-one]
0.15 | N#C[C@@H]1CCCN1C(=O)[C@@H]1CCCc2nn(Cc3ccc(Cl)cn3)c(=O)n21 [Example 512, (2S)-1-({(5S)-2-[(5-Chloropyridin-2-yl)methyl]-3-oxo-2,3,5,6,7,8-hexahydro[1,2,4]triazolo[4,3-a]pyridin-5-yl}carbonyl)pyrrolidine-2-carbonitrile]
1.55 | O=C([C@@H]1CCCc2nn(Cc3ncc(Cl)cc3Cl)c(=O)n21)N1CCC(F)(F)C1 [Example 399, (5S)-2-[(3,5-Dichloropyridin-2-yl)methyl]-5-[(3,3-difluoropyrrolidin-1-yl)carbonyl]-5,6,7,8-tetrahydro[1,2,4]triazolo[4,3-a]pyridin-3(2H)-one]
18.5 | Cc1nonc1Cn1nc2n(c1=O)C(C(=O)N1CCCC1)CCC2 (racemic) [Example 60, (5RS)-2-[(4-Methyl-1,2,5-oxadiazol-3-yl)methyl]-5-(pyrrolidin-1-ylcarbonyl)-5,6,7,8-tetrahydro[1,2,4]triazolo[4,3-a]pyridin-3(2H)-one]
16 | Cc1cc(Cn2nc3n(c2=O)C(C(=O)N2CCCC2)CCC3)no1 (racemic) [Example 61, (5RS)-2-[(5-Methyl-1,2-oxazol-3-yl)methyl]-5-(pyrrolidin-1-ylcarbonyl)-5,6,7,8-tetrahydro[1,2,4]triazolo[4,3-a]pyridin-3(2H)-one]
2.2 | O=C(C1C(C(F)(F)F)CCc2nn(Cc3ccnc(C(F)(F)F)c3F)c(=O)n21)N1CC[C@H](F)C1 (single isomer, unassigned) [Example 281]
0.225 | O=C([C@@H]1CCCc2nn(Cc3ccc(Cl)c(F)c3)c(=O)n21)N1CC(F)C1 [Example 463, (5S)-2-(4-Chloro-3-fluorobenzyl)-5-[(3-fluoroazetidin-1-yl)carbonyl]-5,6,7,8-tetrahydro[1,2,4]triazolo[4,3-a]pyridin-3(2H)-one]
7.1 | O=C([C@@H]1CCCc2nn(Cc3cncc(Cl)c3)c(=O)n21)N1CC(F)(F)C1 [Example 437, (5S)-2-[(5-Chloropyridin-3-yl)methyl]-5-[(3,3-difluoroazetidin-1-yl)carbonyl]-5,6,7,8-tetrahydro[1,2,4]triazolo[4,3-a]pyridin-3(2H)-one]
1.6 | O=C(C1CCCc2nn(Cc3cccc(C(F)(F)F)c3)c(=O)n21)N1CCC(F)(F)C1 (racemic) [Example 47, (5RS)-5-[(3,3-Difluoropyrrolidin-1-yl)carbonyl]-2-[3-(trifluoromethyl)benzyl]-5,6,7,8-tetrahydro[1,2,4]triazolo[4,3-a]pyridin-3(2H)-one]
5.6 | O=C(C1CCCc2nn(Cc3cccc(F)c3)c(=O)n21)N1CCC(F)(F)C1 (racemic) [Example 56, (5RS)-5-[(3,3-Difluoropyrrolidin-1-yl)carbonyl]-2-(3-fluorobenzyl)-5,6,7,8-tetrahydro[1,2,4]triazolo[4,3-a]pyridin-3(2H)-one]
9.6 | O=C([C@@H]1CCCc2nn(Cc3ccc(F)nc3)c(=O)n21)N1CCC(F)(F)C1 [Example 536, (5S)-5-[(3,3-Difluoropyrrolidin-1-yl)carbonyl]-2-[(6-fluoropyridin-3-yl)methyl]-5,6,7,8-tetrahydro[1,2,4]triazolo[4,3-a]pyridin-3(2H)-one]
23 | O=C(C1CC(C(F)(F)F)Cc2nn(Cc3cncc(Cl)c3)c(=O)n21)N1C[C@@H](F)[C@@H](F)C1 (single isomer, unassigned) [Example 268]
910 | O=C(C1CC(C(F)(F)F)Cc2nn(Cc3ccc(Cl)nc3)c(=O)n21)N1CC[C@@H](F)C1 (single isomer, unassigned) [Example 247]
0.041 | O=C([C@@H]1CCCc2nn(Cc3ccc(Br)cc3)c(=O)n21)N1CC[C@H](F)C1 [Example 212, (5S)-2-(4-Bromobenzyl)-5-{[(3S)-3-fluoropyrrolidin-1-yl]carbonyl}-5,6,7,8-tetrahydro[1,2,4]triazolo[4,3-a]pyridin-3(2H)-one]
0.63 | O=C([C@@H]1CCCc2nn(Cc3ccc(Cl)nc3)c(=O)n21)N1CC[C@H](F)C1 [Example 422, (5S)-2-[(6-Chloropyridin-3-yl)methyl]-5-{[(3S)-3-fluoropyrrolidin-1-yl]carbonyl}-5,6,7,8-tetrahydro[1,2,4]triazolo[4,3-a]pyridin-3(2H)-one]
115 | O=C(C1C(C(F)(F)F)CCc2nn(Cc3ncc(Cl)cc3F)c(=O)n21)N1CCC(F)(F)C1 (single isomer, unassigned) [Example 297, (5RS,6RS)-2-[(5-Chloro-3-fluoropyridin-2-yl)methyl]-5-[(3,3-difluoropyrrolidin-1-yl)carbonyl]-6-(trifluoromethyl)-5,6,7,8-tetrahydro[1,2,4]triazolo[4,3-a]pyridin-3(2H)-one]
0.32 | Cc1ccc(Cn2nc3n(c2=O)[C@H](C(=O)N2CC[C@H](F)C2)CCC3)cc1 [Example 110, (5S)-5-{[(3S)-3-Fluoropyrrolidin-1-yl]carbonyl}-2-(4-methylbenzyl)-5,6,7,8-tetrahydro[1,2,4]triazolo[4,3-a]pyridin-3(2H)-one]
